Values belong to the molecule of their own block, whether it stands above or below them.
How the values were obtained:
Format in all cases: cell-based
[1] = molecular target: T1, carnitine transporter comprising the amino acid sequence SEQ ID NO: 2 (Mus musculus, UniProt Q9D687); test: Transport activity of the mouse kidney and intestinal carnitine transporter
T1 sequence (Q9D687 1-634): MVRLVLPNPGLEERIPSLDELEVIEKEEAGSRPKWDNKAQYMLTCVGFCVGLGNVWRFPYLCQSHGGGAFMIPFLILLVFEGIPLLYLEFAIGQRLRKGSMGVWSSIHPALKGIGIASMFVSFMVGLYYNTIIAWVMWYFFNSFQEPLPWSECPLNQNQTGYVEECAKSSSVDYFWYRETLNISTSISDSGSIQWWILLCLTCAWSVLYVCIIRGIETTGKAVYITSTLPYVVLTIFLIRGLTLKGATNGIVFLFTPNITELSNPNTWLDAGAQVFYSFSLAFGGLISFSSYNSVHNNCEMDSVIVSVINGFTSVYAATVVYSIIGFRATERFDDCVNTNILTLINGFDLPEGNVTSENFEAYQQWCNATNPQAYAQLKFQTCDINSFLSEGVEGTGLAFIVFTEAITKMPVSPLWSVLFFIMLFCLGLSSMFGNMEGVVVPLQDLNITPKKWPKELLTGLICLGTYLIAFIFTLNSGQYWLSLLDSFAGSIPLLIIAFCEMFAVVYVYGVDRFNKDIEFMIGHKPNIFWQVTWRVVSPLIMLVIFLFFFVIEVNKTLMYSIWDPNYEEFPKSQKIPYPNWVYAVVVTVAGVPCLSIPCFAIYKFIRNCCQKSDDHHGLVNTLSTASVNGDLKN

[2] = molecular target: T2, carnitine transporter comprising the amino acid sequence SEQ ID NO: 3 (Rattus norvegicus, UniProt Q2A865, F276Y/R32K/S186P); test: Transport activity of the rat kidney and intestinal carnitine transporter
T2 sequence (Q2A865 1-634 R32K/S186P/F276Y): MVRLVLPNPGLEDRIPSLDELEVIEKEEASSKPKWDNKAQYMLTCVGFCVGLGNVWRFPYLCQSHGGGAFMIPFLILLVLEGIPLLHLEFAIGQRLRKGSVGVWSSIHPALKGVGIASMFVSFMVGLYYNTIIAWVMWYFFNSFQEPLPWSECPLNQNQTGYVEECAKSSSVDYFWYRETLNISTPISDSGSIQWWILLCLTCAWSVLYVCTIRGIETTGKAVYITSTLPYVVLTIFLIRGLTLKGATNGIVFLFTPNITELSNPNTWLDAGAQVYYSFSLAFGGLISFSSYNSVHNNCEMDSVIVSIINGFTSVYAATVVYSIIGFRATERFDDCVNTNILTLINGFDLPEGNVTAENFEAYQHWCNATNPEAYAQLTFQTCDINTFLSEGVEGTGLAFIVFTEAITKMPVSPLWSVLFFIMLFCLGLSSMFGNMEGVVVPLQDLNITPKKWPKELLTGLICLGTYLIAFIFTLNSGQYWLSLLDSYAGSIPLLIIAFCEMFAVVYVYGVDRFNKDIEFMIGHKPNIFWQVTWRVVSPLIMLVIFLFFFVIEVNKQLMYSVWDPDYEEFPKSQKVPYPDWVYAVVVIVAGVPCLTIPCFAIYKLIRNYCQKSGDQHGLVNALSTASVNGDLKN

[3] = molecular target: T3, carnitine transporter comprising the amino acid sequence SEQ ID NO: 1 (Homo sapiens, UniProt Q695T7); test: Tracer flux transport measurement in Xenopus laevis oocytes injected with cRNA comprising SEQ ID NO: 4; settings: for kinetics of transport compared with the substrate L-carnitine (FIG. 2): SEQ ID NO: 1, other substrates
T3 construct: expressed in transfected cells; host or cells: Xenopus laevis oocytes injected with cRNA
T3 sequence (Q695T7 1-634): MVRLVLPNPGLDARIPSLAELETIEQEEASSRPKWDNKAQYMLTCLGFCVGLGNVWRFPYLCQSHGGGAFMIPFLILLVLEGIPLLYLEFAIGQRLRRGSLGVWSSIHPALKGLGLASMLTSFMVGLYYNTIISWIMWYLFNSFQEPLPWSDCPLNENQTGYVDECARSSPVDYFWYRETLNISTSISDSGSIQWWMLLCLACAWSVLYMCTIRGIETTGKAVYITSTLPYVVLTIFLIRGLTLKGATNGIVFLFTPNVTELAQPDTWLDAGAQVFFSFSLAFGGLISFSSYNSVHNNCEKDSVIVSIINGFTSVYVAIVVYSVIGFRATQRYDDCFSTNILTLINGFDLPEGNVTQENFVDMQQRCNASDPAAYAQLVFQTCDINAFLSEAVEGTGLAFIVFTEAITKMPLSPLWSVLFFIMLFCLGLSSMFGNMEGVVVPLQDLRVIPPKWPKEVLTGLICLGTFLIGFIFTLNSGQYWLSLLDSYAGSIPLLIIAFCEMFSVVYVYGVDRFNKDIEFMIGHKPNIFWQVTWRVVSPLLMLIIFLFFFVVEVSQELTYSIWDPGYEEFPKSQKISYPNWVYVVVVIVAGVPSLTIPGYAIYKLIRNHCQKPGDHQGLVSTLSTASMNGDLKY
Experimental: The transport measurements of radioactively labeled compounds were executed using Xenopus laevis oocytes in the so-called “tracer flux method”, wherein the transport rate of substrates across the oocyte membrane into the cytosol is determined.
A Xenopus laevis oocyte was injected with a cRNA molecule comprising SEQ ID NO: 4.
Injected oocytes were kept in the culture medium ORi comprising gentamycin (50 mg/L) at 18° C. until the measurement of substrate uptake. Injured, acutely altered or later heavily damaged cells were discarded.
After 72 hours the oocyte was used for screening for a carnitine transporter agonist or antagonist.
Polysterene wells treated with oocyte homogenate were filled with 200 μl substrate solution. The oocytes were first washed two times with ORi solution, before use in the determination. 8 to 10 oocytes were used in a reaction mixture, in order to enable statistical evaluations. After the addition of the oocytes into the substrate solution the reaction mixture was softly mixed and incubated. The incubation was carried through at 22° C. for 1 hour. In order to stop the reaction, 1 ml of ice cold ORi was added.
The oocytes were washed four times in 15 ml ice cold ORi. Subsequently the oocytes were individually transferred into a 6 ml counter vial. The oocyte plasma membrane was disrupted by adding 100 μl […] solution. The vials were slightly agitated to disrupt the plasma membrane. The plasma membrane was completely disrupted by agitation for 30 to 45 minutes. The lysates were mixed with 2 ml of a scintillation cocktail. The radioactivity of the lysates was determined in a liquid scintillation counter comprising a correction for the luminescence and an external standard. Each vial was counted for 5 minutes.
In order to determine the substrate concentration after the dropping in of the oocytes, 2×10 μl solution were removed from the reaction mixture, 100 μl 5% SDS solution was added and evaluations with the counter were carried out. The obtained values were considered in the calculation of the transport rates.
For the determination of concentration-dependent substrate uptake serial dilutions of the investigated substrate were prepared and the radioactivity was distributed, such that in each reaction mixture between 10000 and 20000 cpm were counted in the supernatant. For the KM determination the substrate uptake was measured for 1 hour. In addition, the measurement was carried through using H2O-injected oocytes, in order to determine the background, i.e. the unspecific substrate uptake, for example mediated by diffusion or by endogenous transport proteins. The transport rates were calculated and graphically plotted against the substrate concentration and adapted mathematically according to the Michaelis-Menten equation.

Structure (SMILES): C[N+](C)(C)C[C@H](O)CC(=O)[O-] [L-carnitine]
kinetics of transport compared with FIG. 2 (SEQ ID NO: 1) [1]: comparable kinetics
kinetics of transport compared with FIG. 2 (SEQ ID NO: 1) [2]: comparable kinetics

Structure (SMILES): C[n+]1ccc(-c2ccccc2)cc1 [methylphenylpyridinium]
kinetics of transport compared with the substrate L-carnitine (FIG. 2) [3]: comparable kinetics

More lines, now with the values ahead:

transport of the substrate ([3]; SEQ ID NO: 1): transport
kinetics of transport compared with the substrate L-carnitine (FIG. 2) [3]: comparable kinetics
transport of the substrate [1]: transport
transport of the substrate [2]: transport
Structure (SMILES): CN(CC(=O)O)C(=N)N [creatine]

kinetics of transport compared with the substrate L-carnitine (FIG. 2) [3]: comparable kinetics
Structure (SMILES): NC[C@H](O)c1ccc(O)c(O)c1 [noradrenaline]

kinetics of transport compared with the substrate L-carnitine (FIG. 2) [3]: comparable kinetics
Structure (SMILES): NCCc1c[nH]c2ccc(O)cc12 [serotonin]

— US7879563B2, “Method of screening for a carnitine transporter agonist or antagonist and its uses” (Sanofi-Aventis Deutschland GmbH, priority 2004, dated 2011)
